Assay results reported in patent US20190187129A1, “CANCER MODELING PLATFORMS AND METHODS OF USING THE SAME” (Wake Forest University Health Sciences, priority 2016, published 2019).
Entries after “also recorded” stand apart in the source; their conditions may differ.

Tests used:
CACO2 cells [1] = test: 3D hyaluronan-based hydrogel construct drug screen, MTS assay; conditions: Homo sapiens, Caco-2, 3D, 100 μM, CACO2, drug day 5, assay day 7; read-out: percent relative cell viability (MTS, relative to control)
Protocol: (§1) Polydimethylsiloxane, or PDMS, was used to coat the bottom of the wells. Cells were embedded within the hyaluronan-based hydrogel and were given 5 days to acclimate to their three-dimensional environment and on day 5 were administered different anticancer drug solutions (FIG. 7, panel A). […] At 100 μM concentrations of Regorafenib and Sorafenib, cellular viability remained below 25% that of the control for all four of the colorectal cancer cell lines utilized. The only exception to this was when 100 μM Regorafenib was administered to CACO2 cells and the percent relative cell viability rose to approximately 48%. […] At a 100 μM concentration, Dabrafenib had greater efficacy in targeting the HCT116 and SW480 cell lines, which had relative cellular viability values of 38% and 43%, as opposed to the HT29 and CACO2 cell lines, which had higher cell viability values of 93% and 75%. 100 μM concentrations of Trametinib produced relative cellular viability results that fell within a narrow range for the four colorectal cell lines with values of 54% for SW480 cells and 74% for HT29 cells.
(§2) Well Coating with PDMS and Cell Isolation: Polydimethylsiloxane, or PDMS, (DOW Corning, North Carolina, USA) was used at a 1:10 curing agent ratio to coat the bottom of the 96-well plates and the plates were then placed in a 80° C. oven for at least one hour. Cells were passaged in the same methods previously mentioned (A) with the desire to place 10 μL 3D hyaluronan-based hydrogel constructs containing 100,000 cells each ([…]) into the wells of a 96-wells plate for all four colorectal cancer cell types. Depending on the cell count, a desired number of cells were isolated in new 15 mL centrifuge tubes as cell-media solution and underwent centrifugation.
(§3) Hydrogel Components of the Single-Cell Type Constructs: The hyaluronic acid-based hydrogel (ESI BIO, California, USA) was produced using a mixture of three components: Heprasil, Gelin-S, and Extralink PEGDA 2-ARM Acrylate crosslinker. These components were mixed in a 2:2:1 ratio by volume. 0.1% Irgacure photoinitiator (Sigma-Aldrich, Missouri, USA) was added to each of the three components prior to their mixture and the three components were placed in a 37° C. incubator for a ˜30 minutes to solubilize.
Forming Organoid Constructs: Once solubilized, the media was aspirated from the 15 mL centrifuge tube (post-centrifugation) and the cells were isolated as a pellet. The hydrogel components were added directly into the centrifuge tube containing the cells and the cells were carefully resuspended in the mixture. 10 μL of the gel-cell solution was placed in the center of the wells on the PDMS coating. This was continued for all wells containing cells and was repeated for each cell type. […]

HT29 cells [2] = test: as above; type: cell-based; conditions: for viability at 100 µM: Homo sapiens, HT-29, 100 μM, HT29, drug day 5, assay day 7, read-out: percent relative cell viability (MTS, relative to control)
Protocol: as §1, §2, §3
(§4) Forming Organoid Constructs: Once solubilized, the media was aspirated from the 15 mL centrifuge tube (post-centrifugation) and the cells were isolated as a pellet. The hydrogel components were added directly into the centrifuge tube containing the cells and the cells were carefully resuspended in the mixture. 10 μL of the gel-cell solution was placed in the center of the wells on the PDMS coating. This was continued for all wells containing cells and was repeated for each cell type. After this point, the gel can be exposed to UV light from a BlueWave 200 spot light (Dymax, Connecticut, USA) to solidify the hydrogel, or one can wait ˜30 minutes for the gel to form on its own. DMEM-10 media was then placed in the wells and the constructs were incubated for 5 days.
(§5) Anticancer Drug Screening and Cell Viability: The same five anticancer drugs were added on Day 5 and the cell viability assay occurred on Day 7.

SW480 cells [3] = test: as above; type: cell-based; conditions: for viability at 100 µM: Homo sapiens, SW480, drug day 5, assay day 7, read-out: percent relative cell viability (MTS, relative to control)
Protocol: as §1, §2, §3, §4, §5

SW480 cells [4] = test: 2D drug screen, MTS assay; type: cell-based; conditions: Homo sapiens, read-out: relative cellular viability (MTS, relative to control)
Protocol: (§6) Cancer cells seeded directly into wells were given 4-5 hours to reattach to the bottom of the wells. After that time, the anticancer drug solutions were administered in place of the media (FIG. 6, panel A) and an MTS assay was carried out 2 days later to determine cell viability. […] At 100 μM concentrations of Regorafenib and Sorafenib, and 100 mM concentrations of 5-FU, cellular viability remained below 20% that of the control for all four of the colorectal cancer cell lines utilized. However, screening with Dabrafenib and Trametinib produced diverging results from the other three anticancer drugs at higher concentrations. […] When treated with 1 mM concentrations of 5-FU, relative cellular viability was approximately 39% for SW480 cells and remained between 10%-22% for the HCT116, HT29, and CACO2 cells. These values were considerably lower than the relative cellular viability values for the lowest concentrations of the other anticancer drugs.
(§7) Cell Seeding: The original 15 mL centrifuge tubes containing the 10 mL of DMEM-10, cells, and trypsin were placed into a centrifuge. The centrifugation setting was 1500 RPM and at maximal acceleration for 5 minutes. After that time, the media and trypsin mixture was aspirated from the tubes, leaving the cell pellets still intact. 5 mL of DMEM-10 was then pipetted into each of the tubes, resuspending the cells in the process. Calculated volumes of the 5 mL cell-media solution were determined to ensure that 25,000 cells of each of the four colorectal cancer cell lines were seeded directly into each of the wells of a polystyrene clear-bottom 96-well plate. 100 μL of DMEM-10 media was then pipetted directly into the wells. The 96-well plates were incubated at 37° C. and 5% CO2 for 5 hours to allow the cells to reattach themselves to the bottom of the wells until media was aspirated and anticancer drug solutions were added.
(§8) Addition of Anticancer Drugs for Screening: The anticolorectal cancer drugs used in this screening included 5-FU, Regorafenib, Sorafenib, Trametinib, and Dabrafenib (Sigma-Aldrich, Missouri, USA)). High concentration drug stock solutions were created with DMSO. Lower concentration drug solutions were created by mixing the anticancer drug stocks with DMEM-10 media. […] drug solutions were generated for 5-FU; 1 μM, 10 μM, and 100 μM drug solutions were generated for Regorafenib, Sorafenib, and Dabrafenib; and 1 nM, 10 nM, and 100 nM drug solutions were generated for Trametinib. Media was carefully aspirated from the wells and 200 μL of the various drug-media solutions were placed into the wells containing cells. Three duplicates were generated for each anticancer drug concentration with each of the different cell types to calculate averages and run statistics on the data generated. Well plates were then incubated at 37° C. and 5% CO2 for […].
(§9) Cell viability assay: Cell viability was determined 48 hours after exposure to the anticancer drug solutions. The viability of the cells was examined by the CellTiter 96® AQueous One Solution Cell Proliferation (MTS) assay (Promega, Wisconsin, USA). The anticancer drug-media solutions were aspirated from the wells and 200 μL of the MTS reagent was carefully pipetted into the wells. The incubation time for the cells with the MTS reagent was approximately 45 minutes. The cell viability assay was performed on another 96-well plate and the absorbance was quantified by the EnVision Multilabel Plate Reader (PerkinElmer, California, USA).

HCT116 cells [5] = test: cells; type: cell-based; conditions: Homo sapiens, HCT-116, read-out: relative cellular viability (MTS, relative to control)
Protocol: as §6, §7, §8, §9

HCT116 cells [6] = test: 3D hyaluronan-based hydrogel construct drug screen, MTS assay; conditions: Homo sapiens, HCT-116, 3D, 100 μM, HCT116, drug day 5, assay day 7; read-out: percent relative cell viability (MTS, relative to control)
Protocol: Polydimethylsiloxane, or PDMS, was used to coat the bottom of the wells. Cells were embedded within the hyaluronan-based hydrogel and were given 5 days to acclimate to their three-dimensional environment and on day 5 were administered different anticancer drug solutions (FIG. 7, panel A). […], Dabrafenib had greater efficacy in targeting the HCT116 and SW480 cell lines, which had relative cellular viability values of 38% and 43%, as opposed to the HT29 and CACO2 cell lines, which had higher cell viability values of 93% and 75%. […]
as §2, §3, §4, §5

HT29 cells [7] = test: cells; type: cell-based; conditions: Homo sapiens, HT-29, read-out: relative cellular viability (MTS, relative to control)
Protocol: as §6, §7, §8, §9

CACO2 cells [8] = test: cells; type: cell-based; conditions: Homo sapiens, Caco-2, read-out: relative cellular viability (MTS, relative to control)
Protocol: as §6, §7, §8, §9

[9] = tested on: liver, cardiac, lung, testis, and brain organoids; test: 5 organoid integrated drug screening in a miniaturized microfluidic platform, live/dead staining; type: cell-based; conditions: miniaturized system, 20 uM
Protocol: (§10) Design and Results of Experiments: Adhesive film-based microfluidic platforms were fabricated as described below. As with the full-scale platform described in Example 4, five tissue constructs were initiated containing liver, cardiac, lung, testis, and brain organoids and maintained for 7 days prior to the start of the drug study. At this point, the liver modules were removed from half of the platforms. Capecitabine (20 uM) was administered to all platforms after which viability was assessed through live/dead staining or cardiac beating behavior after 7 days of exposure (day 14 of total study).
FIG. 14 provides an overview of this fabrication methodology.

[10] = tested on: liver, cardiac, lung, testis, and brain organoids; test: 5 organoid integrated drug screening (standard size platform), live/dead staining; type: cell-based; conditions: 20 uM
Protocol: as §10, with “Five tissue” for “Adhesive film-based microfluidic”, “platforms” for “platforms were fabricated as described below. As with the full-scale platform described in Example 4, five tissue constructs”

[11] = 7 days of exposure, with liver present
[12] = 7 days of exposure, without liver

Q: For `CC(C)(C)c1nc(-c2cccc(NS(=O)(=O)c3c(F)cccc3F)c2F)c(-c2ccnc(N)n2)s1` [Dabrafenib], which viability at 100 µM (CACO2 cells [1]) is on record?
A: 75%

Q: What about the viability at 100 µM (HT29 cells [2]) of the same compound?
A: 93%

Q: And the viability at 100 µM (SW480 cells [3])?
A: 43%

Q: And the viability at 100 µM (SW480 cells [4])?
A: ~93%

Q: And the viability at 100 µM (HCT116 cells [5])?
A: ~36%

Q: And the viability at 100 µM (HCT116 cells [6])?
A: 38%

Q: Which results are given for `CNC(=O)c1cc(Oc2ccc(NC(=O)Nc3ccc(Cl)c(C(F)(F)F)c3)cc2)ccn1` [Sorafenib]?
A: viability at 100 µM (CACO2 cells [1]): < 25%; viability at 100 µM (HT29 cells [2]): < 25%; viability at 100 µM (SW480 cells [3]): < 25%; viability at 100 µM (SW480 cells [4]): < 20%; viability at 100 µM (HCT116 cells [5]): < 20%; viability at 100 µM (HT29 cells [7]): < 20%; viability at 100 µM (CACO2 cells [8]): < 20%; viability at 100 µM (HCT116 cells [6]): < 25%

Q: For `CCCCCOC(=O)Nc1nc(=O)n([C@@H]2O[C@H](C)[C@@H](O)[C@H]2O)cc1F` [capecitabine], which “brain organoid viability (LIVE/DEAD)” value ([9]; 7 days of exposure) is on record?
A: brain organoid viability is high

Q: And the “cardiac and lung organoid toxicity (LIVE/DEAD)” value [9, 11]?
A: heart and lung toxicity

Q: And the “cardiac and lung organoid viability (LIVE/DEAD)” value [9, 12]?
A: cardiac and lung organoid viability does not decrease

Q: And the “metabolism by liver organoids” value ([9]; with liver present)?
A: metabolized into the toxic drug 5-FU

Q: What about the “brain organoid viability (LIVE/DEAD)” value ([10]; 7 days of exposure, with and without liver) of the same compound?
A: brain organoids suffered in both groups

Q: What about the “cardiac and lung organoid toxicity (LIVE/DEAD)” value [10, 11] of the same compound?
A: heart and lung toxicity; also recorded: increased cell death in cardiac and lung organoids

Q: And the “cardiac and lung organoid viability (LIVE/DEAD)” value [10, 12]?
A: cardiac and lung organoid viability does not decrease

Q: And the “metabolism by liver organoids” value ([10]; with liver present)?
A: metabolized into the toxic drug 5-FU

Q: Which results are given for `CC(=O)Nc1cccc(-n2c(=O)n(C3CC3)c(=O)c3c(Nc4ccc(I)cc4F)n(C)c(=O)c(C)c32)c1` [Trametinib]?
A: percent relative cell viability (MTS, relative to control) (HT29 cells [2]; 100 μM concentrations of Trametinib, HT29): 74%; percent relative cell viability (MTS, relative to control) (SW480 cells [3]; 100 μM concentrations of Trametinib, SW480): 54%; viability at 0.1 µM (SW480 cells [4]; 100 nM): ~58%; viability at 0.1 µM (CACO2 cells [8]): ~39%
